# Results taken from the supplement of paper PMC10307832.
# Legend:
# Test in all cases: relative viability (nuclei count vs DMSO), 5 days (fraction); higher = more cells survive
# [1] = compound: C1=CC=C2C(=C1)N=C(S2)C(C#N)C3=NC(=NC=C3)NCCC4=CN=CC=C4 + C[C@@H](Oc1cc(-c2cnn(C3CCNCC3)c2)cnc1N)c1c(Cl)ccc(F)c1Cl [Crizotinib] (partner 1 µM)
# How it was run: (§1)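 Lung cancer cell lines, seeded in 1536-well plates, were treated the following day by pin tool with a single drug or with five library-drug doses (not always all listed) in √10 steps on top of a fixed anchor-drug dose. Cells were fixed and nuclei stained in one step after 5 days, and nuclei were counted. Relative viability is the nuclei count for treated wells divided by that for vehicle wells, reported as medians of duplicate plates.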
# [2] = compound: COc1cc2/c(=N/c3ccc(Br)cc3F)nc[nH]c2cc1OCC1CCN(C)CC1 [Vandetanib] + COc1cc2c(Oc3ccc(NC(=O)C4(C(=O)Nc5ccc(F)cc5)CC4)cc3F)ccnc2cc1OCCCN1CCOCC1 [Foretinib] (partner 0.25 µM)
# How it was run: as §1
# [3] = compound: C1=CC=C2C(=C1)N=C(S2)C(C#N)C3=NC(=NC=C3)NCCC4=CN=CC=C4 + CC(=O)Nc1cccc(-n2c(=O)n(C3CC3)c(=O)c3c(Nc4ccc(I)cc4F)n(C)c(=O)c(C)c32)c1 [Trametinib] (partner 0.02 µM)
# How it was run: as §1
# [4] = compound: C#Cc1cccc(Nc2ncnc3cc(OC)c(OCCCCCCC(=O)NO)cc23)c1 [CUDC-101] + Cc1nc(NC(=O)N2CCC[C@H]2C(N)=O)sc1-c1ccnc(C(C)(C)C(F)(F)F)c1 [Alpelisib] (partner 2 µM)
# How it was run: as §1
cell line,measurement,setting,value
UMC-11,relative viability,[1]; first compound 0.005 µM,0.487
same,relative viability,[1]; first compound 0.01581 µM,0.561
same,relative viability,[1]; first compound 0.05 µM,0.602
same,relative viability,[1]; first compound 0.1581 µM,0.654
same,relative viability,[1]; first compound 0.5 µM,0.5
same,relative viability,[2]; first compound 0.02 µM,1.05
same,relative viability,[2]; first compound 0.06325 µM,1.01
same,relative viability,[2]; first compound 0.2 µM,0.281
same,relative viability,[2]; first compound 0.6325 µM,0.962
same,relative viability,[2]; first compound 2 µM,0.97
same,relative viability,[3]; first compound 0.01581 µM,0.741
same,relative viability,[3]; first compound 0.05 µM,0.664
same,relative viability,[3]; first compound 0.1581 µM,0.839
same,relative viability,[3]; first compound 0.5 µM,0.831
same,relative viability,[4]; first compound 0.01 µM,1.24
same,relative viability,[4]; first compound 0.03162 µM,0.902
same,relative viability,[4]; first compound 0.1 µM,0.779
same,relative viability,[4]; first compound 0.3162 µM,0.395
same,relative viability,[4]; first compound 1 µM,0.123
